Patent US12653191B2, “Active compound combinations” (Bayer Aktiengesellschaft, priority 2020, dated 2026)

Tests used:
[1] = Log P by HPLC on reversed phase columns (LC-UV), method [a]: acidic range, 0.1% formic acid in water / acetonitrile; type: physicochemical; settings: method [a]: HPLC on reversed phase column, acidic range, 0.1% formic acid in water / acetonitrile
Procedure: Measurement of Log P Values
Measurement of Log P values as provided herein was performed according to EEC directive 79/831 Annex V.A8 by HPLC (High Performance Liquid Chromatography) on reversed phase columns with the following methods: • ^[a]
If more than one Log P value is available within the same method, all the values are given and separated by “+”.

[2] = test system: Alternaria alternate; experiment: in vitro-Test with fungal microorganisms, Method A (tables A1-A12); type: cell-based, Alternaria alternata; settings: applied alone
Outline: (§1)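 First, compound in methanol with alkylaryl-polyglycol-ether was dried down in the plate. Next, spore or mycelium suspension in potato dextrose broth was added and extinction read at 620 nm. After 3-5 days at 20° C, 85% RH, reading was repeated and efficacy scored against untreated wells.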

[3] = test system: Cercospora beticola; experiment: in vitro-Test with fungal microorganisms, Method A (tables C1-C10); type: cell-based; settings: Cercospora beticola, read-out: Efficacy %
Outline: as §1

[4] = test system: Diaporthe citri; experiment: in vitro-Test with fungal microorganisms, Method A (tables F1-F11); type: cell-based; settings: applied alone
Outline: as §1

[5] = test system: Fusarium culmorum; experiment: in vitro-Test with fungal microorganisms, Method A (tables G1-G4); type: cell-based; settings: alone
Outline: as §1

[6] = test system: Ustilago segetum var. avenae; experiment: in vitro-Test with fungal microorganisms, Method A (tables I1-I5); type: cell-based; settings: alone, read-out: Efficacy %
Outline: as §1

For `Cc1ccc(CC2CON=C(c3cc(C)nnc3Oc3cccc(Cl)c3F)N2)c(Cl)c1` (racemic) [Compound I-302, rac-3-[3-(3-chloro-2-fluorophenoxy)-6-methylpyridazin-4-yl]-5-[(2-chloro-4-methylphenyl)methyl]-5,6-dihydro-4H-1,2,4-oxadiazine], the chromatographic logP [1] was 3.94, the inhibition of growth at 0.0008 ppm ([2]; Alternaria, 0.0008 ppm, read-out: Efficacy %) was 9% and the inhibition of growth at 0.004 ppm ([2]; Alternaria, 0.004 ppm, read-out: Efficacy %) was 6%. For the same compound, the inhibition of growth at 0.02 ppm ([2]; Alternaria, 0.02 ppm, read-out: Efficacy %) was 36%, the inhibition of growth at 0.1 ppm ([2]; Alternaria, 0.1 ppm, read-out: Efficacy %) was 100% and the Efficacy % ([2]; 0.004 ppm) was 6%. For the same compound, the inhibition of growth at 0.0008 ppm ([3]; 0.0008 ppm) was 0%, the inhibition of growth at 0.004 ppm ([3]; 0.004 ppm) was 0% and the inhibition of growth at 0.02 ppm ([3]; 0.02 ppm) was 31%. It also gave an inhibition of growth at 0.1 ppm ([3]; 0.1 ppm) of 35%, an inhibition of growth at 0.0008 ppm ([4]; Diaporthe citri, 0.0008 ppm, read-out: Efficacy) of 0% and an inhibition of growth at 0.004 ppm ([4]; Diaporthe citri, 0.004 ppm, read-out: Efficacy) of 1%. For the same compound, the inhibition of growth at 0.02 ppm ([4]; Diaporthe citri, 0.02 ppm, read-out: Efficacy) was 0%, the inhibition of growth at 0.1 ppm ([4]; Diaporthe citri, 0.1 ppm, read-out: Efficacy) was 20% and the Efficacy ([4]; 0.004 ppm) was 1%. For the same compound, the Efficacy ([5]; 0.004 ppm) was 4%, the inhibition of growth at 0.0008 ppm ([5]; Fusarium culmorum, 0.0008 ppm, read-out: Efficacy) was 7% and the inhibition of growth at 0.004 ppm ([5]; Fusarium culmorum, 0.004 ppm, read-out: Efficacy) was 4%. For the same compound, the inhibition of growth at 0.02 ppm ([5]; Fusarium culmorum, 0.02 ppm, read-out: Efficacy) was 2%, the inhibition of growth at 0.1 ppm ([5]; Fusarium culmorum, 0.1 ppm, read-out: Efficacy) was 0% and the inhibition of growth at 0.0008 ppm ([6]; 0.0008 ppm) was 0%. The inhibition of growth at 0.004 ppm ([6]; 0.004 ppm) was 0%, the inhibition of growth at 0.02 ppm ([6]; 0.02 ppm) was 0% and the inhibition of growth at 0.1 ppm ([6]; 0.1 ppm) was 0%.
